Results reported in ChEMBL document CHEMBL2046285, “Synthesis of novel imbricatolic acid analogues via insertion of N-substituted piperazine at C-15/C-19 positions, displaying glucose uptake stimulation in L6 skeletal muscle cells” (2012).

system: L6; assay: Antidiabetic activity in rat L6 cells assessed as stimulation of glucose uptake at 10 uM; type: functional

Row | SMILES | Activity
1 | C=C1CC[C@@H]2[C@](C)(CCC[C@]2(C)C(=O)N2CCN(c3ccc(F)cc3)CC2)[C@H]1CC[C@H](C)CCOC(C)=O | 22.45%
2 | C=C1CC[C@@H]2[C@](C)(CCC[C@]2(C)C(=O)N2CCN(c3cccc(OC)c3)CC2)[C@H]1CC[C@H](C)CCOC(C)=O | 54.73%
3 | C=C1CC[C@@H]2[C@](C)(CCC[C@]2(C)C(=O)N2CCN(C/C=C/c3ccccc3)CC2)[C@H]1CC[C@H](C)CCOC(C)=O | 16.3%
4 | C=C1CC[C@@H]2[C@](C)(CCC[C@]2(C)C(=O)N2CCN(c3ccc(C)cc3)CC2)[C@H]1CC[C@H](C)CCOC(C)=O | 2.21%
5 | C=C1CC[C@@H]2[C@](C)(CCC[C@]2(C)C(=O)N2CCN(c3ccc(Cl)cc3)CC2)[C@H]1CC[C@H](C)CCOC(C)=O | 40.79%
6 | C=C1CC[C@@H]2[C@](C)(CCC[C@]2(C)C(=O)N2CCN(c3ccccc3)CC2)[C@H]1CC[C@H](C)CCOC(C)=O | 24.14%
7 | C=C1CC[C@@H]2[C@](C)(CCC[C@]2(C)C(=O)N2CCN(C)CC2)[C@H]1CC[C@H](C)CCOC(C)=O | -10.16%
8 | C=C1CC[C@@H]2[C@](C)(CCC[C@]2(C)C(=O)N2CCN(C(C)=O)CC2)[C@H]1CC[C@H](C)CCOC(C)=O | -1.96%
9 | C=C1CC[C@@H]2[C@](C)(CCC[C@]2(C)C(=O)OC)[C@H]1CC[C@H](C)CCOC(=O)CN1CCN(c2ccc(F)cc2)CC1 | 28.86%
10 | C=C1CC[C@@H]2[C@](C)(CCC[C@]2(C)C(=O)OC)[C@H]1CC[C@H](C)CCOC(=O)CN1CCN(c2cccc(OC)c2)CC1 | 40.9%
11 | C=C1CC[C@@H]2[C@](C)(CCC[C@]2(C)C(=O)OC)[C@H]1CC[C@H](C)CCOC(=O)CN1CCN(C/C=C/c2ccccc2)CC1 | 18.58%
12 | C=C1CC[C@@H]2[C@](C)(CCC[C@]2(C)C(=O)OC)[C@H]1CC[C@H](C)CCOC(=O)CN1CCN(c2ccc(C)cc2)CC1 | 15.27%
13 | C=C1CC[C@@H]2[C@](C)(CCC[C@]2(C)C(=O)OC)[C@H]1CC[C@H](C)CCOC(=O)CN1CCN(c2ccc(Cl)cc2)CC1 | 39.55%
14 | C=C1CC[C@@H]2[C@](C)(CCC[C@]2(C)C(=O)OC)[C@H]1CC[C@H](C)CCOC(=O)CN1CCN(c2ccccc2)CC1 | 29.51%
15 | C=C1CC[C@@H]2[C@](C)(CCC[C@]2(C)C(=O)OC)[C@H]1CC[C@H](C)CCOC(=O)CN1CCN(C)CC1 | -3.75%
16 | C=C1CC[C@@H]2[C@](C)(CCC[C@]2(C)C(=O)OC)[C@H]1CC[C@H](C)CCOC(=O)CN1CCN(C(C)=O)CC1 | -5.9%
17 | C=C1CC[C@@H]2[C@](C)(CCC[C@]2(C)C(=O)O)[C@H]1CC[C@H](C)CCO [IMBRICATOLIC ACID] | 34.41%
18 | CN(CCOc1ccc(CC2SC(=O)NC2=O)cc1)c1ccccn1 (stereo not drawn) [ROSIGLITAZONE] | 54.5%
